pIC50: −log10 of the molar value. Counter-ions that a name gives are not always drawn.
Columns and labels:
[1] = test system: IL-1β release upon NLRP3 activation in peripheral blood mononuclear cells (PBMC); assay: PBMC IC50 Determination Assay; assay type: cell-based; details: Homo sapiens; inhibition of IL-1β release; PBMC primed with LPS, stimulated with ATP or nigericin; ELISA or HTRF
Experimental: The compounds of the present disclosure were tested for their inhibitory activity against IL-1β release upon NLRP3 activation in peripheral blood mononuclear cells (PBMC).
Protocol A. PBMC were isolated from buffy coats by density gradient centrifugation on Histopaque-1077 (Sigma, cat no. 10771). Isolated cells were seeded into the wells of a 96-well plate and incubated for 3 h with lipopolysaccharide (LPS). Following medium exchange, the compounds of the present disclosure were added (a single compound per well) and the cells were incubated for 30 min. Next, the cells were stimulated either with ATP (5 mM) or nigericin (10 μM) for 1 h and the cell culture media from the wells were collected for further analysis.
The release of IL-1β into the media was determined by a quantitative detection of IL-1β in the media using an IL-1β enzyme-linked immunosorbent assay (ELISA) Ready-SET-Go!, eBioscience cat. No. 88-7261-88. Briefly, in a first step, high affinity binding plates (Corning, Costar 9018 or NUNC Maxisorp Cat No. 44-2404) were coated overnight at 4° C. with specific capture antibody included in the kit (anti-human IL-1β ref. 14-7018-68). Subsequently, plates were blocked with blocking buffer for 1 h at room temperature (rt) and after washing with a buffer (PBS with 0.05% Tween-20) incubated with protein standard and culture media. After 2 h of incubation at rt, plates were washed and incubated with biotinylated detection antibody included in the kit (anti-human IL-1β Biotin ref. 33-7110-68) for 1 h at rt. Plates were washed and incubated with HRP-streptavidin for 30 min at rt and washed again. The signal was developed after addition of 3,3′,5,5′-tetramethylbenzidine-peroxidase (TMB) until colour appeared and the reaction was stopped by 2 M H2SO4. A microplate spectrophotometer (BioTek) was used to detect signals with 450 nm. The detection range of IL-1β ELISA was […].
Protocol B. PBMC were isolated from buffy coats by density gradient centrifugation on Histopaque-1077 (Sigma, cat no. 10771). Isolated cells were seeded into the wells (280,000 cells/well) of a 96-well plate and incubated for 3 h with lipopolysaccharide (LPS, 1 μg/mL diluted 1000× from a 1 mg/mL stock solution). The compounds of the present disclosure were added (a single compound per well) and the cells were incubated for 30 min. Next, the cells were stimulated with ATP (5 mM final concentration diluted 20× from a 100 mM stock solution) for 1 h and the cell culture media from the wells were collected for further analysis.
The release of IL-1β into the media was determined by quantitative detection of IL-1β in the media using HTRF®, CisBio cat. No. 62HIL1BPEH. Briefly, cell culture supernatant were dispensed directly into the assay plate containing antibodies labelled with the HTRF® donor and acceptor. A microplate spectrophotometer (BMG) was used to detect signals at 655 nm and 620 nm. The detection range of IL-1β HTRF® was 39-6500 pg/mL.

[2] = test system: IL-1β release upon NLRP3 activation in phorbol 12-myristate 13-acetate (PMA)-differentiated THP-1 cells; assay: THP-1 IC50 Determination Assay; assay type: cell-based; details: Homo sapiens, inhibition of IL-1β release, LPS, nigericin, ELISA
Experimental: The compounds of the present disclosure were tested for their inhibitory activity against IL-1β release upon NLRP3 activation in phorbol 12-myristate 13-acetate (PMA)-differentiated THP-1 cells.
THP-1 cells stored in liquid nitrogen were thawed in a 37° C. water bath. The cells were added into complete RPMI 1640 medium (FBS (56 mL), 100× Penicillin-Streptomycin (5.6 mL) and 0.05 mM 2-Mercaptoethanol in RPMI 1640 Medium (500 mL)) and centrifuged for 5 min at 1000 rpm. The supernatant was discarded and the cells resuspended into new cell culture medium for culturing. Cells were cultured in cell culture medium and passaged every 3-4 days to maintain cell density between 4×10^5 and 1.5×10^6 cells/mL. The cells were diluted to 0.8×10^6 cells/mL and grown in a T150 flask with PMA (final concentration 5 ng/mL). The flask was incubated in a 37° C. incubator with a humidified atmosphere of 5% CO2 for −40 hours. After −40 hours of PMA differentiation, the flask was washed with DPBS. Cells were digested with Trypsin LE for about 5 min at room temperature, and digestion was terminated using complete RPMI 1640 medium. Cells were centrifuged and resuspended (1000 rpm, 3 min). The supernatant was discarded and cells washed with DPBS, centrifuged and resuspended cells (1000 rpm, 5 min). Cells were plated at 30,000 cells/well in a 384-well PP plate and treated with 25 ng/mL LPS solution diluted in serum-free medium (45 μL). The plate was incubated in a 37° C. incubator with a humidified atmosphere of 5% CO2 for 2 hours. Compounds (from 10 mM DMSO solution) were dispensed and serially diluted by 1:3 eight times, with final 0.5% DMSO concentration. NLRP3 inflammasome was activated with nigericin (5 μL), the plate was centrifuged (1000 rpm, 30 s) and incubated in a 37° C. incubator with a humidified atmosphere of […] for 2 hours. 35 μL/well of supernatant was removed and IL-1β levels determined by ELISA assay (Mabtech 3416-1H-20) according to the manufacturer's instructions.

With `Cc1cc(Cl)cc(O)c1-c1cc2ccn(C[C@@H]3CCN(C)C[C@@H]3F)c2nn1` (relative stereo) [Compound 24, Cis-5-chloro-2-{7-[(3-fluoro-1-methylpiperidin-4-yl)methyl]-7H-pyrrolo[2,3-c]pyridazin-3-yl}-3-methylphenol] the pIC50 [1] was 7.00 to 7.52 and the pIC50 [2] was 6.52 to 7.00.
`Cc1cc(Cl)cc(O)c1-c1cc2ccn(C[C@@H]3CCN(C)C[C@H]3F)c2nn1` (relative stereo) [Compound 51, Trans-5-chloro-2-{7-[(3-fluoro-1-methylpiperidin-4-yl)methyl]-7H-pyrrolo[2,3-c]pyridazin-3-yl}-3-methylphenol hydrochloride] gave a pIC50 [1] of 6.52 to 7.00 and a pIC50 [2] of 5.52 to 6.00.
In the case of `Cc1cc(C(F)(F)F)cc(O)c1-c1cc2ccn(CC3CCOCC3)c2nn1` [Compound 1, 3-Methyl-2-{7-[(oxan-4-yl)methyl]-7H-pyrrolo[2,3-c]pyridazin-3-yl}-5-(trifluoromethyl)phenol], the pIC50 [1] was 6.52 to 7.00 and the pIC50 [2] was 6.00 to 6.52.
`Cc1cc(C(F)(F)F)cc(O)c1-c1cc2ccn(CC3CCCO3)c2nn1` (stereo not drawn) [Compound 2, 3-Methyl-2-{7-[(oxolan-2-yl)methyl]-7H-pyrrolo[2,3-c]pyridazin-3-yl}-5-(trifluoromethyl)phenol] was tested, and the pIC50 [1] was 6.00 to 6.52 and the pIC50 [2] was 6.52 to 7.00.
For `Cc1cc(C(F)(F)F)cc(O)c1-c1cc2ccn(CC3CCOC3)c2nn1` (stereo not drawn) [Compound 3, 3-Methyl-2-{7-[(oxolan-3-yl)methyl]-7H-pyrrolo[2,3-c]pyridazin-3-yl}-5-(trifluoromethyl)phenol], the pIC50 [1] was 6.52 to 7.00 and the pIC50 [2] was 6.52 to 7.00.
With `Cc1cc(C(F)(F)F)cc(O)c1-c1cc2ccn(CC3CCN(C)CC3)c2nn1` [Compound 4, 3-Methyl-2-{7-[(1-methylpiperidin-4-yl)methyl]-7H-pyrrolo[2,3-c]pyridazin-3-yl}-5-(trifluoromethyl)phenol] the pIC50 [1] was 7.00 to 7.52 and the pIC50 [2] was 7.00 to 7.52.
With `Cc1cc(C(F)(F)F)cc(O)c1-c1cc2cc[nH]c2nn1` [Compound 5, 3-Methyl-2-{7H-pyrrolo[2,3-c]pyridazin-3-yl}-5-(trifluoromethyl)phenol] the pIC50 [1] was 6.00 to 6.52 and the pIC50 [2] was 6.00 to 6.52.
`Cc1cc(C(F)(F)F)cc(O)c1-c1cc2ccn(C)c2nn1` [Compound 6, 3-Methyl-2-{7-methyl-7H-pyrrolo[2,3-c]pyridazin-3-yl}-5-(trifluoromethyl)phenol] gave a pIC50 [1] of 6.00 to 6.52 and a pIC50 [2] of 6.00 to 6.52.
With `Cc1cc(Cl)cc(O)c1-c1cc2ccn(CC3CCN(CC(F)(F)F)CC3)c2nn1` [Compound 7, 5-Chloro-3-methyl-2-(7-{[1-(2,2,2-trifluoroethyl)piperidin-4-yl]methyl}-7H-pyrrolo[2,3-c]pyridazin-3-yl)phenol] the pIC50 [1] was 6.00 to 6.52 and the pIC50 [2] was 6.00 to 6.52.
Work on `Cc1cc(Cl)cc(O)c1-c1cc2ccn(CC3CCCN(C)C3)c2nn1` (stereo not drawn) [Compound 8, 5-Chloro-3-methyl-2-{7-[(1-methylpiperidin-3-yl)methyl]-7H-pyrrolo[2,3-c]pyridazin-3-yl}phenol] yielded a pIC50 [1] of 7.00 to 7.52 and a pIC50 [2] of 6.52 to 7.00.
For `CC(=O)N1CCC(Cn2ccc3cc(-c4c(C)cc(Cl)cc4O)nnc32)CC1` [Compound 9, 1-(4-{[3-(4-Chloro-2-hydroxy-6-methylphenyl)-7H-pyrrolo[2,3-c]pyridazin-7-yl]methyl}piperidin-1-yl)ethan-1-one], the pIC50 [1] was 7.00 to 7.52 and the pIC50 [2] was 7.00 to 7.52.
For `Cc1cc(Cl)cc(O)c1-c1cc2ccn(CC(=O)N(C)[C@@H]3CCOC3)c2nn1` [Compound 60, 2-[3-(4-Chloro-2-hydroxy-6-methylphenyl)-7H-pyrrolo[2,3-c]pyridazin-7-yl]-N-methyl-N-[(3R)-oxolan-3-yl]acetamide], the pIC50 [2] was 6.52 to 7.00.
Work on `Cc1cc(Cl)cc(O)c1-c1cc2ccn(CC(=O)N(C)[C@H]3CCN(C)C3)c2nn1` [Compound 61, 2-[3-(4-Chloro-2-hydroxy-6-methylphenyl)-7H-pyrrolo[2,3-c]pyridazin-7-yl]-N-methyl-N-[(3S)-1-methylpyrrolidin-3-yl]acetamide hydrochloride] yielded a pIC50 [2] of 6.52 to 7.00.
For `Cc1cc(Cl)cc(O)c1-c1cc2ccn(CC(=O)N(C)[C@@H]3CCN(C)C3)c2nn1` [Compound 62, 2-[3-(4-Chloro-2-hydroxy-6-methylphenyl)-7H-pyrrolo[2,3-c]pyridazin-7-yl]-N-methyl-N-[(3R)-1-methylpyrrolidin-3-yl]acetamide hydrochloride], the pIC50 [2] was 6.00 to 6.52.
For `Cc1cc(Cl)cc(O)c1-c1cc2ccn(CC3CC(=O)N(C)C3)c2nn1` (stereo not drawn) [Compound 64, 4-{[3-(4-Chloro-2-hydroxy-6-methylphenyl)-7H-pyrrolo[2,3-c]pyridazin-7-yl]methyl}-1-methylpyrrolidin-2-one], the pIC50 [2] was 6.52 to 7.00.
Work on `Cc1cc(Cl)cc(O)c1-c1cc2ccn(CC3CCN(C)C3=O)c2nn1` (stereo not drawn) [Compound 66, 3-{[3-(4-Chloro-2-hydroxy-6-methylphenyl)-7H-pyrrolo[2,3-c]pyridazin-7-yl]methyl}-1-methylpyrrolidin-2-one] yielded a pIC50 [2] of 6.00 to 6.52.
`Cc1cc(Cl)cc(O)c1-c1cc2ccn(C3CCN(C)CC3)c2nn1` [Compound 67, 5-Chloro-3-methyl-2-[7-(1-methylpiperidin-4-yl)-7H-pyrrolo[2,3-c]pyridazin-3-yl]phenol] gave a pIC50 [2] of 6.00 to 6.52.
`CN1CCC(Cn2ccc3cc(-c4ccc(C#N)cc4O)nnc32)CC1` [Compound 68, 3-Hydroxy-4-{7-[(1-methylpiperidin-4-yl)methyl]-7H-pyrrolo[2,3-c]pyridazin-3-yl}benzonitrile] was tested, and the pIC50 [2] was 5.00 to 5.52.
With `Cc1cc(Cl)cc(O)c1-c1cc2ccn([C@@H]3CCN(C)C3=O)c2nn1` [Compound 69, (3R)-3-[3-(4-Chloro-2-hydroxy-6-methylphenyl)-7H-pyrrolo[2,3-c]pyridazin-7-yl]-1-methylpyrrolidin-2-one] the pIC50 [2] was 6.00 to 6.52.
In the case of `Cc1cc(Cl)cc(O)c1-c1cc2ccn(CC3CCC(=O)N(C)C3)c2nn1` (stereo not drawn) [Compound 70, 5-{[3-(4-Chloro-2-hydroxy-6-methylphenyl)-7H-pyrrolo[2,3-c]pyridazin-7-yl]methyl}-1-methylpiperidin-2-one], the pIC50 [2] was 6.52 to 7.00.
With `Cc1cc(Cl)cc(O)c1-c1cc2ncn(C[C@@H]3CCCN(C)C3)c2nn1` [Compound 79, 5-Chloro-3-methyl-2-(7-{[(3R)-1-methylpiperidin-3-yl]methyl}-7H-imidazo[4,5-c]pyridazin-3-yl)phenol hydrochloride] the pIC50 [2] was 7.00 to 7.52.
Molecule `Cc1cc(Cl)cc(O)c1-c1cc2ncn(C[C@H]3CCCN(C)C3)c2nn1` [Compound 80, 5-Chloro-3-methyl-2-(7-{[(3S)-1-methylpiperidin-3-yl]methyl}-7H-imidazo[4,5-c]pyridazin-3-yl)phenol hydrochloride] has a pIC50 [2] of 6.52 to 7.00.

From patent US20250206745A1, “PYRROLOPYRIDAZINE DERIVATIVES AND RELATED USES” (NodThera Limited, priority 2023, published 2025)
